Assay results reported in US20130245061A1, “PHARMACEUTICAL COMPOSITIONS” (NOVARTIS AG, priority 2010, published 2013).

Assays:
[1] = pH-dependent solubility of the therapeutic compound; assay type: physicochemical; settings: pH higher than 3
[2] = permeability of the therapeutic compound; assay type: in vitro ADME
[3] = 2-Step Dissolution Test (pH 2 then pH 6.8); assay type: physicochemical; settings: pH 6.8, second step; FIG. 2
Procedure: Capsules containing either Compound A alone, Formulation Variant 1 or Variant 2 are placed in 900 mL of pH 2 HCl and then stirred in a USP Apparatus II rotating at 50 rpm for 10 to 100 minutes (with fast stir from about minute 60 to minute 90). At approximately the 100 minute time point, this medium is adjusted to pH 6.8 and to a volume of 1000 ml and then stirred in a USP Apparatus II rotating at 50 rpm. Samples are filtered using a 100 μm Varian full flow filter and analyzed by UV.
Capsules containing either Compound A alone, Formulation Variants 1 or 2 are separately evaluated using a 2-Step Dissolution Test. This analysis compared the dissolution profile of capsules containing 68.5 mg per unit of 2-methyl-2-[4-(3-methyl-2-oxo-8-quinolin-3-yl-2,3-dihydro-imidazo[4,5-c]quinolin-1-yl)-phenyl]-propionitrile monotosylate salt (which is equivalent to 50 mg of the free base of 2-methyl-2-[4-(3-methyl-2-oxo-8-quinolin-3-yl-2,3-dihydro-imidazo[4,5-c]quinolin-1-yl)-phenyl]-propionitrile) at pH 2 and pH 6.8.
For this analysis, capsules containing either Compound A alone, Formulation Variant 1 or Variant 2 are placed in 900 mL of pH 2 HCl and then stirred in a USP Apparatus II rotating at 50 rpm for 10-100 minutes (with fast stir from about minute 60 to minute 90). […] Samples are filtered using a 100 μm Varian Full Flow filter and analyzed by HPLC.

- solubility [1]: approximately 0%
- permeability [2]: low
- drug release [3]: approximately 0%
Compound: Cn1c(=O)n(-c2ccc(C(C)(C)C#N)cc2)c2c3cc(-c4cnc5ccccc5c4)ccc3ncc21 [Compound A, 2-methyl-2-[4-(3-methyl-2-oxo-8-quinolin-3-yl-2,3-dihydro-imidazo[4,5-c]quinolin-1-yl)-phenyl]-propionitrile]
